Experiment [1] relates to western corn rootworm (Diabrotica virgifera virgifera). The experiment is described as follows: Test B.1.2 control of western corn rootworm, maximum exposure to treated soil. The class given is in vivo. The conditions noted are these: mortality 3 DAI. The source says:
For evaluating control of western corn rootworm (Diabrotica virgifera virgifera) through maximum exposure method, the insects were exposed to treated soil.
The compounds or mixtures were first dissolved in acetone, and then mixed with soil to obtain the desired different ppm concentrations (w/w) of compound/soil or mixture/soil. For experimental mixtures, identical volumes of both mixing partners were mixed together to achieve the desired respective concentrations. Treatments were applied in solution to sifted (#10 sieve) loamy sand in a plastic bag. Treatments were thoroughly incorporated by sealing and shaking each bag by hand and allowing the solution to soak through the soil mass for at least 10 minutes. Bags were then unsealed and kept open in a fume hood overnight to evaporate the solvent from the soil.
One day after treatment (DAT) water for moisture and water-soaked millet seed as a food source were added to each bag and incorporated thoroughly. About 11 cm^3 of the millet and soil mixture was dispensed into a 1-oz. plastic cup. Each cup was infested with 10 western corn rootworm second-instar larvae and covered. Each cup was a replicate and replication was 3×. The test was maintained in an incubator at 26±1° C. in the dark. Mortality (dead+moribund insects) was evaluated 3 days after infestation (DAI) and mean percent mortality was calculated relative to the untreated control.

The test system of experiment [2] is Rhizoctonia solani. The experiment is described as follows: B.2.4 microtest, activity against Rhizoctonia solani. The class given is cell-based. The conditions noted are these: MTP, 7 days after inoculation.
The test system of experiment [3] is Pyricularia oryzae. The class given is cell-based. The conditions noted are these: MTP, 7 days after inoculation.
Experiment [4] concerns Microdochium nivale. The experiment is described as follows: B.2.3 microtest, activity against Microdochium nivale. The experiment is classed as cell-based. The conditions noted are these: MTP, 7 days after inoculation.
For experiment [5], the system named is wireworm (Melanotus communis). The experiment is described as follows: Test B.1.1 control of wireworm, direct contact (dip) method. The following applies: mortality 3 DAT. The experiment is classed as in vivo. Here is the method:
For evaluating control of wireworm (Melanotus communis) through direct contact method, the individual insects were dipped directly into compound solution.
The compounds or mixtures were dissolved in acetone at different concentrations. The compounds or mixtures were formulated using a solution containing 50% (v/v) acetone in water with 0.02 wt % Kinetic®.
For the experimental mixtures, identical volumes of both mixing partners were mixed together to achieve the desired respective concentrations. Wireworms were dipped directly into solution for three seconds and then allowed to air dry on filter paper.
About 11 cm^3 of water-moistened loamy sand was dispensed into each 16-cm^2 cell of a 32-cell rearing tray. One treated wireworm larva was infested into each cell along with two germinating wheat seeds. Cells were then covered with adhesive bio-assay tray lids. Each cell was a replicate and replication was 10×. After infestation, the test was maintained in an incubator at 26±1° C. in the dark. Mortality (dead+moribund insects) was evaluated 3 days after treatment (DAT) and mean percent mortality was calculated relative to the untreated control.

Experiment [6] deals with seedcorn maggot (Della platura). As to the kind of experiment: Test B.1.4 control of seedcorn maggot, maximum exposure to treated soil. The experiment is classed as in vivo. The following applies: mortality 2 DAT.
Excerpt: For evaluating control of seedcorn maggot (Della platura) through maximum exposure, the insects were exposed to treated soil.
The compounds or mixtures were first dissolved in acetone, and then mixed with soil to obtain the desired different ppm concentrations (w/w) of compound/soil or mixture/soil. For experimental mixtures, identical volumes of both mixing partners were mixed together to achieve the desired respective concentrations. Treatments were applied in solution to dry, sifted (#10 sieve) play sand in a glass jar. Treatments were thoroughly incorporated by capping and shaking each jar by hand and allowing the solution to soak through the sand mass for at least 10 minutes. The jars were then uncapped and the sand was kept in a fume hood for 4 hours to evaporate the solvent.
After the sand was dry, 10 cm^3 of the treated sand was dispensed into a 1-oz. plastic cup with bone meal in the bottom as a food source. Each cup was moistened with 4 ml water, infested with five seedcorn maggot second-instar larvae, and covered. Each cup was a replicate and replication was 5×. The test was maintained in an incubator at 22±1° C. in the dark. Mortality (dead+moribund insects) was evaluated 2 days after treatment (DAT) and mean percent mortality was calculated relative to the untreated control.
Experiment [7] deals with Alternaria solani. The experiment is described as follows: B.2.2 microtest, activity against early blight. The class given is cell-based. The following applies: MTP, 7 days after inoculation.
The subject of experiment [8] is root-knot nematodes (Meloidogyne spp.). As to the kind of experiment: Test B.1.5 control of root-knot nematodes, drench application on cucumber plants. The conditions noted are these: four weeks after infestation. The class given is in vivo. As to the method: For evaluating control of root-knot nematodes (Meloidogyne spp.) through exposure via drench application, the nematodes were introduced to treated cucumber plants.
The compounds or mixtures were dissolved in acetone at different concentrations. The compounds or mixtures were formulated using a solution containing 50% (v/v) acetone in water with 0.02 wt % Kinetic®. For experimental mixtures, identical volumes of both mixing partners were mixed together to achieve the desired respective concentrations.
Germinated cucumber seeds were planted in 1-oz black plastic cups (one seed per cup) with dry, sifted (#10 sieve) play sand. Treatments were applied as a drench in 7 ml solution to each cup which were held in a fume hood for 1 hour to allow acetone to evaporate. The cups were moved to an environmental chamber (25±2° C., 24 L) and watered daily for the duration of the test. Each cup was a replicate and replication was 5×. At the cucumber's cotyledon stage, each cup was infested with 500 root-knot nematode juveniles (J2s) in 1 ml distilled water.
Four weeks after infestation, cucumber roots were washed off and galls and egg masses were counted. Control was calculated as the reduction in galls or egg masses relative to the untreated control. Mean percent control was calculated for each treatment.

Experiment [9] has as its system black cutworm (Agrotis ipsilon). The experiment is described as follows: Test B.1.3 control of black cutworm, direct contact (dip) method. The experiment is classed as in vivo. The following applies: for Average Control % 1 DAT: mortality 1 DAT; for Average Control % 5 DAT: mortality 5 DAT. Here is the method:
For evaluating control of black cutworm (Agrotis ipsilon) through direct contact method, the individual insects were dipped directly into compound solution.
The compounds or mixtures were dissolved in acetone at different concentrations. The compounds or mixtures were formulated using a solution containing 50% (v/v) acetone in water with 0.02 wt % Kinetic®. For experimental mixtures, identical volumes of both mixing partners were mixed together to achieve the desired respective concentrations. Second-instar black cutworms were dipped directly into solution for three seconds and then allowed to air dry on filter paper. One treated black cutworm larva was infested into each 16-cm^2 cell of a 32-cell rearing tray along with the excised shoot of a corn plant and a moistened cotton wick. Cells were then covered with adhesive bio-assay tray lids. Each cell was a replicate and replication was 16×. After infestation, the test was maintained in an incubator at 25.5±1° C. and a 14L:10D light cycle. Mortality (dead+moribund insects) was evaluated 1 and 5 days after treatment (DAT) and mean percent mortality was calculated relative to the untreated control.

Where two headings read alike, the source gives them in different places.

With `N#C/N=C1\SCCN1Cc1ccc(Cl)nc1` [Thiacloprid], the “Average Control %” value in experiment [1] (0.2 ppm compound/soil) was 37%.

Regarding `Fc1ccc([C@]2(Cn3cncn3)O[C@H]2c2ccccc2Cl)cc1` (racemic) [Epoxiconazol, Epoxiconazole], the Observed efficacy worked out at 0 in experiment [2] (0.001 ppm); 0 in [2] (0.004 ppm); 24 in [2] (0.016 ppm); 1 in experiment [3] (0.063 ppm); 28 in experiment [3] (0.25 ppm); 8 in [4] (0.004 ppm). Also, the Observed efficacy in experiment [4] (0.016 ppm) was 29.

In the case of `Cn1cc(C(=O)Nc2ccccc2-c2cc(F)c(F)c(F)c2)c(C(F)F)n1` [Fluxapyroxad], the Observed efficacy in experiment [4] (0.004 ppm) and in [4] (0.063 ppm) was 0 throughout.

`CNC(=O)c1cc(C#N)cc(C)c1NC(=O)c1cc(Br)nn1-c1ncccc1Cl` [Cyantraniliprole, cyantraniliprole]: the “Average Control %” value in experiment [5] (225 ppm) was 22%; in [6] (10 ppm compound/soil), 64%; in experiment [1] (3.1 ppm compound/soil), 23%.

Take `CN/C(=N\[N+](=O)[O-])NCc1cnc(Cl)s1` [Clothianidin]: in experiment [1] (0.1 ppm compound/soil), the “Average Control %” value is 33%.

For emamectin, the “Average Control %” value in experiment [5] (800 ppm) came out at 11%.

For `COC(=O)N(OC)c1ccccc1COc1ccn(-c2ccc(Cl)cc2)n1` [Pyraclostrobin], the Observed efficacy was 46 in experiment [4] (0.016 ppm), 0 in experiment [7] (0.016 ppm) and 12 in experiment [7] (0.063 ppm).

On to `CN1COCN(Cc2cnc(Cl)s2)/C1=N\[N+](=O)[O-]` [Thiamethoxam], for which the “Average Control %” value in experiment [5] (25 ppm) is on record as 11%.

Regarding Abamectin, in [8] (0.008 mg compound/plant), the “Average Egg Mass Control %” value amounted to 17% and the “Average Gall Control %” value amounted to 24%. Besides, in experiment [8] (0.017 mg compound/plant), the “Average Egg Mass Control %” value was found to be 39% and the “Average Gall Control %” value came out at 40%.

For the molecule `CC1(C)CCC(=Cc2ccc(Cl)cc2)C1(O)Cn1cncn1` (centres unmarked) [Triticonazol, Triticonazole], the Observed efficacy in [2] (0.25 ppm) was 41; in experiment [7] (0.25 ppm) it was 0; in experiment [7] (1 ppm), 23.

For `O=[N+]([O-])NC1=NCCN1Cc1ccc(Cl)nc1` [Imidacloprid], the “Average Control %” value in experiment [6] (3 ppm compound/soil) is on record as 18%; in experiment [1] (0.13 ppm compound/soil) it was 17%.

As for `N#Cc1nn(-c2c(Cl)cc(C(F)(F)F)cc2Cl)c(N)c1[S+]([O-])C(F)(F)F` (centres unmarked) [Fipronil], the “Average Control %” value in [5] (30 ppm) was found to be 22%; in experiment [1] (0.03 ppm compound/soil), 27%. Moreover, the “Average Control % 1 DAT” value in [9] (300 ppm) came out at 13%. Besides, the “Average Control % 5 DAT” value in experiment [9] (300 ppm) was found to be 31%.

For `CN(C(=O)c1ccccc1)c1cccc(C(=O)Nc2c(Br)cc(C(F)(C(F)(F)F)C(F)(F)F)cc2C(F)(F)F)c1F` [Carboxamide compound of formula I], the Observed efficacy in experiment [2] (1 ppm) came out at 0; in experiment [2] (4 ppm), 0; in experiment [2] (16 ppm), 0; in [3] (0.063 ppm) it was 2; in [3] (1 ppm), 12; in experiment [3] (4 ppm), 15. Further, the Observed efficacy worked out at 4 in [3] (16 ppm); 13 in experiment [4] (4 ppm); 15 in experiment [4] (16 ppm); 4 in experiment [4] (63 ppm); 0 in experiment [7] (1 ppm); 0 in [7] (4 ppm). Besides, the Observed efficacy in experiment [7] (16 ppm) and in [7] (63 ppm) was 0 in each case. In addition, in experiment [8] (0.3 mg compound/plant), the “Average Egg Mass Control %” value is recorded as −21%. Moreover, the “Average Gall Control %” value in [8] (0.3 mg compound/plant) was determined as 35%. Also, the “Average Control %” value in experiment [5] (3 ppm) is given as 33%; in experiment [6] (0.06 ppm compound/soil), 21%; in [1] (0.01 ppm compound/soil) it was 30%. In addition, the “Average Control % 1 DAT” value in experiment [9] (3 ppm) was determined as 38%. In addition, the “Average Control % 5 DAT” value in experiment [9] (3 ppm) turned out to be 44%.

Values taken from patent publication US10201157B2 (priority 2013, dated 2019).
